Results reported in patent US20140113904A1, “TREATMENT OF CANCER WITH TOR KINASE INHIBITORS” (SIGNAL PHARMACEUTICALS, LLC, priority 2012, published 2014).
Like-named read-outs stand apart in the source and are kept apart here. Values belong to the molecule of their own block, whether it stands above or below them.

What was measured:
mTOR = mTOR (Homo sapiens, UniProt P42345); test: mTOR inhibition (Table 3); format: biochemical; conditions: average of 2 or more experiments
pS6 [1] = test: PC3 cellular activity: pS6 (mTORC1) inhibition; format: cell-based; conditions: Homo sapiens, PC-3; average of 2 or more experiments
pAktS473 [2] = test: PC3 cellular activity: pAktS473 (mTORC2) inhibition; format: cell-based; conditions: Homo sapiens, PC-3; average of 2 or more experiments; read-out: PC3 Cellular Activity pAkt IC50
[3] = system: PC3 prostate cancer cell lines; test: PC3 cellular activity: proliferation; conditions: Homo sapiens, PC-3, read-out: PC3 Cellular Activity Prolif IC50
Oral bioavailability = test: Oral bioavailability; design: species or system rodent; conditions: in vivo
249 kinases = test: Single point kinase selectivity assay against 249 kinases; format: biochemical; conditions: 10 μM
FMS = FMS (Homo sapiens, UniProt P07333); test: FMS concentration-response curve; format: biochemical
Chain of FMS (P07333 20-972, species assumed): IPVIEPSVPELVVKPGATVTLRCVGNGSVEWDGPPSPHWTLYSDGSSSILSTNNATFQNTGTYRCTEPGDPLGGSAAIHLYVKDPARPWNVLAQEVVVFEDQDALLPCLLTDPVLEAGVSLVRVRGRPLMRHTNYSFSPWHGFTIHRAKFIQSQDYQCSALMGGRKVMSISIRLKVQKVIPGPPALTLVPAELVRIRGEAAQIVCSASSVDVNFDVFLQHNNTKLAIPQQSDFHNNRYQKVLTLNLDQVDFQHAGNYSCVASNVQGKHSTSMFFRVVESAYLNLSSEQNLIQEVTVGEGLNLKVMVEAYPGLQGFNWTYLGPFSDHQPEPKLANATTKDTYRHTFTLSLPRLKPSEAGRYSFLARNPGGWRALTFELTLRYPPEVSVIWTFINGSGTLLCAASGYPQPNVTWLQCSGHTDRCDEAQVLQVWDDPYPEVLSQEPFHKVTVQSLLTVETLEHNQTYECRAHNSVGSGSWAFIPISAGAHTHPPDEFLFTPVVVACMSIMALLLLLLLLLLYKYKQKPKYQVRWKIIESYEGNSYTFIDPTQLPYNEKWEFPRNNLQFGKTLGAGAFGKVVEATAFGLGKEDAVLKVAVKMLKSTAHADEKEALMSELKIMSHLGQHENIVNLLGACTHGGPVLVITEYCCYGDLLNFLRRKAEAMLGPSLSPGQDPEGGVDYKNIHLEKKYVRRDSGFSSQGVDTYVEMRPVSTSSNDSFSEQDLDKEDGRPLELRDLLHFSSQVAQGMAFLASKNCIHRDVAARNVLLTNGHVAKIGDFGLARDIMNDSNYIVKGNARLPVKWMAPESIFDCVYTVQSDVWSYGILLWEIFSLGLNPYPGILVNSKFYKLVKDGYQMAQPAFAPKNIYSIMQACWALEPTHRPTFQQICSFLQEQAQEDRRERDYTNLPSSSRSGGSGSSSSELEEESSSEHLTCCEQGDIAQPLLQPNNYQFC

PC3 xenograft = format: in vivo
pS6 [4] = test: Tumor pS6 after single dose of Compound 6 (PK/PD); format: in vivo, mice; conditions: for inhibition at 30 mg/kg: Mus musculus, 30 mg/kg single dose
pAktS473 [5] = test: Tumor pAktS473 after single dose of Compound 6 (PK/PD); format: in vivo, mice; conditions: Mus musculus, 30 mg/kg single dose
[6] = Compound 6 plasma and tumor levels (PK/PD); format: in vivo, mice; conditions: 30 mg/kg single dose, by 24 h
4E-BP1(T46) = test: Phospho-4E-BP1(T46) in PC3 cell lysates, Luminex multiplex; format: cell-based, human; conditions: PC3 cells, up to concentrations of 10 μM
Source text: (§1) The direct substrate for TORC1 was 4E-BP 1(T46) and indirect downstream substrate was S6RP(S235/S236). The direct substrate for TORC2 was Akt(S473) and indirect downstream substrates measured were GSK3β(S9) and PRAS40(T246). Additionally, the phosphorylation status of Akt(T308), a phosphorylation site for PDK1 was monitored.
The multiplex Luminex assay format differs from conventional enzyme-linked immunosorbent assay (ELISA) in that the multiplex capture antibody is attached to a polystyrene bead whereas the ELISA capture antibody is attached to the microplate well. The use of the suspension bead-based technology enables the multiplexing capabilities of the Luminex assays. The xMAP® technology uses 5.6 micron polystyrene microspheres, which are internally dyed with red and infrared fluorophores of differing intensities. Each bead is given a unique number, or bead region, allowing differentiation of one bead from another. Beads covalently bound to different specific antibodies can be mixed in the same assay, utilizing a 96-well microplate format. At the completion of the sandwich immunoassay, beads can be read, using the Luminex 100™ or Luminex 200 detection system, in single-file by dual lasers for classification and quantification of each analyte. […]

S6RP(S235/S236) = test: Phospho-S6RP(S235/S236) in PC3 cell lysates, MSD; format: cell-based, human; conditions: Homo sapiens, PC-3, 1 h, PC3 cells, 1 hour; two values; read-out: IC50 for inhibition of S6RP(S235/S236) phosphorylation
Source text: as §1
(§2) MSD® biomarker detection assays provide a rapid and convenient method for measuring the total and phosphorylated levels of protein targets within a single small volume sample. These assays are available in both single-plex and multiplex formats. In a single-plex assay, an antibody for a specific protein target is coated on one electrode (or spot) per well. […] MSD Read Buffer that provides the appropriate chemical environment for ECL is added and the plate is read using an MSD SECTOR™ Imager. […] The instrument measures intensity of the emitted light to afford a quantitative measure of the amount of phosphorylated Akt or S6RP present in the sample. […]
(§3) The assay plate was incubated with 150 μL of MSD Blocker A Solution for 1 hour with shaking at room temperature. […] Then 150 μL of 1×MSD Read Buffer T was added to each well. The plate was read on the SECTOR Imager plate reader. The Excel data was transferred to Activity Base and IC50 values were calculated.
(§4) All data was analyzed using XLfit from IDBS. […]

Akt(S473) = test: Phospho-Akt(S473) in PC3 cell lysates, MSD; format: cell-based, human; conditions: PC3 cells, data not shown
Source text: as §1, §2, §3, §4

[7] = Body weight in Compound 1 PC3 xenograft efficacy studies; format: in vivo, SCID mice; conditions: rapamycin 4 mg/kg, 3 weeks, data not shown
Description: The BID dose groups were dosed with a 10-hour separation between the morning and evening doses. […] At the end of each study, plasma and/or tumor samples were collected.
Initial body weights were recorded prior to the initiation of treatment using a digital scale. The percent body weight change during the course of the study was calculated using initial body weight measurements. Body weights of each animal were measured twice a week at the same time that tumor measurements were taken. Body weights were measured more frequently if significant decreases were noted during the course of the study.

IC50 (mTOR): 176 nM
IC50 (pS6 [1]): 2410 nM
IC50 (pAktS473 [2]): 2550 nM
IC50 [3]: 4180 nM
SMILES: CC(C)(O)c1ccc(-c2cnc3[nH]c(=O)n(CC4CCOCC4)c3n2)cn1 [Compound 5]

IC50 (mTOR): 2 nM
IC50 (pS6 [1]): 40 nM
IC50 (pAktS473 [2]): 18 nM
oral bioavailability (Oral bioavailability): poor oral bioavailability
IC50 [3]: 224 nM
SMILES: O=c1[nH]c2ncc(-c3ccc(-c4nc[nH]n4)cc3)nc2n1CCC1CCOCC1 [Compound 3]

IC50 (S6RP(S235/S236)): 0.019 nM
SMILES: CO[C@H]1C[C@@H]2CC[C@@H](C)[C@@](O)(O2)C(=O)C(=O)N2CCCC[C@H]2C(=O)O[C@H]([C@H](C)C[C@@H]2CC[C@@H](O)[C@H](OC)C2)CC(=O)[C@H](C)/C=C(\C)[C@@H](O)[C@@H](OC)C(=O)[C@H](C)C[C@H](C)/C=C/C=C/C=C/1C [rapamycin, reference compound]
inhibition of 4E-BP1(T46) phosphorylation (4E-BP1(T46)): not inhibited
inhibition of Akt(S473) phosphorylation (Akt(S473)): did not inhibit
change in body weight [7]: No significant change

Continued, molecule first:

SMILES: O=C1CN(CCC2CCOCC2)c2nc(-c3ccc(-c4nc[nH]n4)cc3)cnc2N1 [Compound 4]
oral bioavailability (Oral bioavailability): poor oral bioavailability
IC50 [3]: 148 nM

SMILES: CC(C)(O)c1ccc(-c2cnc3c(n2)N(CC2CCOCC2)CC(=O)N3)cn1 [Compound 6]
kinases other than mTOR inhibited >80% (249 kinases): only one kinase other than mTOR was inhibited >80%
IC50 (FMS): 2700 nM
oral bioavailability (Oral bioavailability): excellent oral bioavailablity
tumor volume inhibition compared to vehicle control (PC3 xenograft; 10 mg/kg oral once daily): 18%
tumor volume inhibition compared to vehicle control (PC3 xenograft; 25 mg/kg oral once daily): 63%
tumor volume inhibition compared to vehicle control (PC3 xenograft; 50 mg/kg oral once daily): 84%
tolerability (PC3 xenograft; all dose levels and schedules, 3 weeks of treatment): well tolerated
PC3 tumor growth (PC3 xenograft; oral, once or twice daily or every second day): significantly inhibited PC3 tumor growth
biomarker (pS6, pAktS473) inhibition in tumor (pS6 [4]; 100 mg/kg single dose, through 24 hours): full biomarker inhibition
inhibition at 30 mg/kg (pS6 [4]; 2-8 h): 87 to 93%
inhibition at 30 mg/kg (pS6 [4]; 24 h): 43%
inhibition at 30 mg/kg (pAktS473 [5]; 2-8 h): 53 to 77%
inhibition at 30 mg/kg (pAktS473 [5]; 24 h): 28%
plasma and tumor level of compound [6]: almost completely cleared
